Literature values as cited in patent publication US10202620B2, “Synthesis of olefinic alcohols via enzymatic terminal hydroxylation” (PROVIVI, INC., priority 2014, dated 2019).

Experiments:
CYP52A4 = target: T1, CYP52A4 (Candida maltosa, UniProt P16141); details: terminal hydroxylation, by alkane/FA chain length
T1 sequence (P16141 1-538): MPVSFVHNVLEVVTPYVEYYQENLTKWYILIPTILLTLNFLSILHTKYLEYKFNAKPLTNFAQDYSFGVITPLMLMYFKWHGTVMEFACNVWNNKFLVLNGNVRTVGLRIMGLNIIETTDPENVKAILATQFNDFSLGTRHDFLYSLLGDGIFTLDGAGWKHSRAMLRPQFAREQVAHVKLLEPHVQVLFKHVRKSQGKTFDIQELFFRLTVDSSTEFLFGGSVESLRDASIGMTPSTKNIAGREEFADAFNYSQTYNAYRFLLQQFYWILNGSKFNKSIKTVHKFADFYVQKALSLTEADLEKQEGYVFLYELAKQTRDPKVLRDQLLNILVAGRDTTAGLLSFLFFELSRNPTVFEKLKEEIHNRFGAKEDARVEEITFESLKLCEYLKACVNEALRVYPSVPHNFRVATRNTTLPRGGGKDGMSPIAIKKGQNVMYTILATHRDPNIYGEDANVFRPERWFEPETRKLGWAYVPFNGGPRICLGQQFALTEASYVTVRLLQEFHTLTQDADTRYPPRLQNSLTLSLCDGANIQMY

CYP52A3 = details: terminal hydroxylation, by alkane/FA chain length
CYP153A16 = details: terminal hydroxylation, by alkane/FA chain length
CYP153A P. sp. = details: terminal hydroxylation, by alkane/FA chain length
AlkB P. putida GPo1 = target: T2, AlkB P. putida GPo1 (Ectopseudomonas oleovorans, UniProt P12691); details: terminal hydroxylation, by alkane/FA chain length
T2 sequence (P12691 1-401): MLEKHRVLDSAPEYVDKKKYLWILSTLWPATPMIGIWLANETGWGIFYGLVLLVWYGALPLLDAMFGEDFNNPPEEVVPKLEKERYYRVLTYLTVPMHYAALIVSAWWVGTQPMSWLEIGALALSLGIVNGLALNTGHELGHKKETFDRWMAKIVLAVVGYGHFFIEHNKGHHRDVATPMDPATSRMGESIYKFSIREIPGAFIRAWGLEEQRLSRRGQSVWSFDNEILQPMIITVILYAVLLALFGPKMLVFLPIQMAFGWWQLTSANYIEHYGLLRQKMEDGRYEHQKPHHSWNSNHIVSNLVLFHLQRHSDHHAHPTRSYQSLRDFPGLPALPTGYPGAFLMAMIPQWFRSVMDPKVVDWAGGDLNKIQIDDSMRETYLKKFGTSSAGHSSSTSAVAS

alkB2 Gordonia sp TF6 = details: terminal hydroxylation, by alkane/FA chain length; 100% relative activity obtained with hexane
LadA = target: T3, LadA (Geobacillus thermodenitrificans, UniProt A4IU28); details: terminal hydroxylation, by alkane/FA chain length
T3 sequence (A4IU28 1-440): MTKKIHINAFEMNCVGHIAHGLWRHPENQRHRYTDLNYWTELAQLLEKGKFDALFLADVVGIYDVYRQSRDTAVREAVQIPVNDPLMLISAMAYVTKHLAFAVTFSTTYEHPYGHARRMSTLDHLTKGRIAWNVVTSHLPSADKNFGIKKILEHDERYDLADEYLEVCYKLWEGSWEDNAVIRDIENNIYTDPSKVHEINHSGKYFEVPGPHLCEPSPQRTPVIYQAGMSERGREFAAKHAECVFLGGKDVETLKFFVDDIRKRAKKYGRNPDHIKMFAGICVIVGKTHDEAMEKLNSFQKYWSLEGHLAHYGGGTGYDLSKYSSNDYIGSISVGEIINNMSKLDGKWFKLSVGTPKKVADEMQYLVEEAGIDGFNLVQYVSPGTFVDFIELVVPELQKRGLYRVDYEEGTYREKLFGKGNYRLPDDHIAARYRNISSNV

Row | Compound | Relative activity CYP52A4 (Scheller et al., 1996, Arch. Biochem Biophys. 328: 245-254) (CYP52A4) | Relative activity CYP52A3 (Scheller et al., 1996, Arch. Biochem Biophys. 328: 245-254) (CYP52A3) | Relative activity CYP153A16 (Scheps et al., 2011, Org. Biomol. Chem. 9: 6727-6733) (CYP153A16) | Relative activity CYP153A P. sp. (Scheps et al., 2011, Org. Biomol. Chem. 9: 6727-6733) (CYP153A P. sp.) | Relative activity AlkB P. putida GPo1 (Vanbeilen et al., 1994, Enzyme Microb. Technol. 16: 904-911) (AlkB P. putida GPo1) | Relative activity alkB2 Gordonia sp TF6* (Fujii et al., 2004, Biosci. Biotechnol. Biochem. 68: 2171-2177) (alkB2 Gordonia sp TF6) [%] | Relative activity CYP153A6 (Funhoff et al., 2006, J. Bacteriol. 188: 5220-5227) (CYP153A6) | Relative activity LadA (Feng et al., 2007, Proc. Natl. Acad. Sci. U.S.A. 104: 5602-5607) (LadA) | further results
1 | CCCCCCCCCCCCCCCC(=O)O [C16 FA] | 18 | 35 |  |  |  |  |  |  | Relative activity CYP52A21 (Kim et al., 2007, Arch. Biochem. Biophys. 464: 213-220) (CYP52A21): 29
2 | CCCCCCCCCCCCCCCCCC(=O)O [C18 FA] | 1 | 30 |  |  |  |  |  |  | 
3 | CCCCCCCC [Strain C8] |  |  | 100 | 100 | 95 | 72 | 100 |  | 
4 | CCCCCCCCC [Strain C9] |  |  | 29 | 69 | 100 | 63 | 82 |  | 
5 | CCCCCCCCCC [Strain C10] |  |  | 13 | 60 | 60 | 66 | 23 |  | 
6 | CCCCCCCCCCC [Strain C11] |  |  | <8 | <6 | 6 | 48 | 1 |  | 
7 | CCCCCCCCCCCC [Strain C12] | 37 | 41 |  |  |  | 34 |  |  | 
8 | CCCCCCCCCCCCCCC [Strain C15] |  |  |  |  |  |  |  | 83 | 
9 | CCCCCCCCCCCCCCCC [Strain C16] | 33 | 100 |  |  |  |  |  | 100 | 
10 | CCCCCCCCCCCCCCCCCC [Strain C18] | 20 | 48 |  |  |  |  |  | 78 | 
11 | CCCCCCCCCCCCCCCCCCCCCC [Strain C22] |  |  |  |  |  |  |  | 74 | 
12 | CCCCCCCCCCCCCCCCCCCCCCCC [Strain C24] |  |  |  |  |  |  |  | 65 | 
